What was measured:
[1] = 101.33 kPa, Liquid; for mass density: Vibrating tube method
[2] = refractive index (Na D-line) (dimensionless); details: 101.33 kPa, Liquid, Standard Abbe refractometry
[3] = molar heat capacity at constant pressure; details: 298.15 K; 101.33 kPa; Liquid; Drop calorimetry

CCn1cc[n+](C)c1.Cc1ccc(S(=O)(=O)[O-])cc1 [1-ethyl-3-methylimidazolium 4-methylbenzenesulfonate]
Details | mass density, [1] [kg/m3] | refractive index, [2] | viscosity, [1] [mPa·s]
303.15 K | 1223.4 | – | 1417.4
308.15 K | 1220 | – | 842.45
313.15 K | 1216.6 | – | 531.73
318.15 K | 1213.2 | – | 351.97
322.73 K | – | 1.53844 | –
323.15 K | 1210 | – | 242.85
325.68 K | – | 1.53757 | –
327.64 K | – | 1.53703 | –
328.15 K | 1206.8 | – | 173.69
329.61 K | – | 1.53649 | –
332.55 K | – | 1.5357 | –
333.15 K | 1203.7 | – | 128.18
334.52 K | – | 1.53509 | –
336.48 K | – | 1.53461 | –
338.15 K | 1200.6 | – | 97.21
338.44 K | – | 1.53409 | –
340.41 K | – | 1.53356 | –
342.37 K | – | 1.53304 | –
343.15 K | 1197.6 | – | 75.51
348.15 K | 1194.5 | – | 59.9
353.15 K | 1191.5 | – | 48.42
358.15 K | 1188.5 | – | 39.81
363.15 K | 1185.5 | – | 33.22

CC(=O)[O-].CCn1cc[n+](C)c1 [1-ethyl-3-methylimidazolium acetate]
Details | mass density, [1] [kg/m3] | refractive index, [2] | viscosity, [1] [mPa·s]
278.15 K | 1112.4 | – | 723.62
283.15 K | 1108.9 | – | 451.35
288.15 K | 1105.6 | – | 295.7
288.37 K | – | 1.50371 | –
293.15 K | 1102.4 | – | 202.29
293.28 K | – | 1.50233 | –
298.15 K | 1099.3 | – | 143.61
298.19 K | – | 1.50091 | –
303.1 K | – | 1.49949 | –
303.15 K | 1096.2 | – | 105.3
308.01 K | – | 1.49807 | –
308.15 K | 1093.6 | – | 79.32
312.91 K | – | 1.49666 | –
313.15 K | 1090 | – | 61.33
318.15 K | 1087 | – | 48.41
323.15 K | 1084 | – | 38.95
328.15 K | 1081 | – | 31.87
333.15 K | 1078 | – | 26.47
338.15 K | 1075 | – | 22.27
343.15 K | 1072.1 | – | 18.96
348.15 K | 1069.2 | – | 16.31
353.15 K | 1066.3 | – | 14.16
358.15 K | 1063.4 | – | 12.41
363.15 K | 1060.6 | – | 10.95

Details | molar heat capacity at constant pressure [J/K/mol]
[3] | 321.9

CCn1cc[n+](C)c1.N#CN=C=[N-] [1-ethyl-3-methylimidazolium dicyanamide]
Details | mass density, [1] [kg/m3] | refractive index, [2] | viscosity, [1] [mPa·s]
278.15 K | 1117.9 | – | 32.51
283.15 K | 1114.3 | – | 26.67
288.15 K | 1110.9 | – | 22.23
288.37 K | – | 1.51745 | –
293.15 K | 1107.4 | – | 18.79
293.28 K | – | 1.51585 | –
298.15 K | 1104 | – | 16.09
298.19 K | – | 1.51428 | –
303.1 K | – | 1.51269 | –
303.15 K | 1100.6 | – | 13.92
308.01 K | – | 1.51112 | –
308.15 K | 1097.3 | – | 12.16
312.91 K | – | 1.50956 | –
313.15 K | 1094 | – | 10.72
318.15 K | 1090.7 | – | 9.519
323.15 K | 1087.4 | – | 8.518
328.15 K | 1084.2 | – | 7.673
333.15 K | 1081 | – | 6.951
338.15 K | 1077.8 | – | 6.327
343.15 K | 1074.7 | – | 5.788
348.15 K | 1071.6 | – | 5.319
353.15 K | 1068.5 | – | 4.909
358.15 K | 1065.4 | – | 4.548
363.15 K | 1062.3 | – | 4.229

Details | molar heat capacity at constant pressure [J/K/mol]
[3] | 314.63

CCn1cc[n+](C)c1.COP(=O)([O-])OC [1-ethyl-3-methylimidazolium dimethylphosphate]
Details | mass density, [1] [kg/m3] | refractive index, [2] | viscosity, [1] [mPa·s]
298.19 K | – | 1.48175 | –
303.1 K | – | 1.4805 | –
303.15 K | 1213.9 | – | 192.68
308.01 K | – | 1.47909 | –
308.15 K | 1210.5 | – | 144.32
312.91 K | – | 1.47771 | –
313.15 K | 1207.1 | – | 110.51
317.82 K | – | 1.47636 | –
318.15 K | 1203.8 | – | 86.32
322.73 K | – | 1.47511 | –
323.15 K | 1200.5 | – | 68.64
327.64 K | – | 1.47384 | –
328.15 K | 1197.2 | – | 55.46
333.15 K | 1193.9 | – | 45.47
338.15 K | 1190.6 | – | 37.78
343.15 K | 1187.4 | – | 31.76
348.15 K | 1184.2 | – | 26.99
353.15 K | 1181 | – | 23.17
358.15 K | 1177.8 | – | 20.07
363.15 K | 1174.7 | – | 17.53

Details | molar heat capacity at constant pressure [J/K/mol]
[3] | 411.78

CCn1cc[n+](C)c1.CS(=O)(=O)[O-] [1-ethyl-3-methylimidazolium methanesulfonate]
Details | mass density, [1] [kg/m3] | refractive index, [2] | viscosity, [1] [mPa·s]
278.15 K | 1257.1 | – | 805.33
283.15 K | 1253.3 | – | 505.92
288.15 K | 1249.5 | – | 336.04
288.37 K | – | 1.49823 | –
293.15 K | 1245.9 | – | 232.44
293.28 K | – | 1.49682 | –
298.15 K | 1242.4 | – | 166.59
298.19 K | – | 1.49542 | –
303.1 K | – | 1.49399 | –
303.15 K | 1239 | – | 123.14
308.01 K | – | 1.49254 | –
308.15 K | 1235.6 | – | 93.48
312.91 K | – | 1.49114 | –
313.15 K | 1232.2 | – | 72.64
318.15 K | 1228.8 | – | 57.62
323.15 K | 1225.5 | – | 46.54
328.15 K | 1222.2 | – | 38.2
333.15 K | 1218.9 | – | 31.81
338.15 K | 1215.6 | – | 26.84
343.15 K | 1212.3 | – | 22.9
348.15 K | 1209.1 | – | 19.75
353.15 K | 1205.9 | – | 17.19
358.15 K | 1202.8 | – | 15.08
363.15 K | 1199.7 | – | 13.33

Details | molar heat capacity at constant pressure [J/K/mol]
[3] | 345.52

CCn1cc[n+](C)c1.CO[PH](=O)[O-] [1-ethyl-3-methylimidazolium methyl phosphonate]
Details | mass density, [1] [kg/m3] | refractive index, [2] | viscosity, [1] [mPa·s]
278.15 K | 1222.2 | – | 916.06
283.15 K | 1218.6 | – | 598.79
288.15 K | 1215.1 | – | 406.82
288.37 K | – | 1.49534 | –
293.15 K | 1211.7 | – | 285.8
293.28 K | – | 1.4939 | –
298.15 K | 1208.3 | – | 206.76
298.19 K | – | 1.49249 | –
303.1 K | – | 1.49115 | –
303.15 K | 1205 | – | 153.63
308.01 K | – | 1.48982 | –
308.15 K | 1201.8 | – | 116.89
312.91 K | – | 1.48854 | –
313.15 K | 1198.6 | – | 90.83
317.82 K | – | 1.48714 | –
318.15 K | 1195.5 | – | 71.92
323.15 K | 1192.3 | – | 57.94
328.15 K | 1189.2 | – | 47.38
333.15 K | 1186.1 | – | 39.29
338.15 K | 1183 | – | 32.99
343.15 K | 1179.9 | – | 28.02
348.15 K | 1176.9 | – | 24.05
353.15 K | 1173.9 | – | 20.83
358.15 K | 1170.9 | – | 18.2
363.15 K | 1167.9 | – | 16.03

Details | molar heat capacity at constant pressure [J/K/mol]
[3] | 354.63

CCn1cc[n+](C)c1.N#C[S-] [1-ethyl-3-methylimidazolium thiocyanate]
Details | mass density, [1] [kg/m3] | refractive index, [2] | viscosity, [1] [mPa·s]
278.15 K | 1129.7 | – | 54.57
283.15 K | 1126.5 | – | 43.51
288.15 K | 1123.3 | – | 35.36
293.15 K | 1120.1 | – | 29.21
298.15 K | 1117 | – | 24.5
303.15 K | 1113.9 | – | 20.79
308.15 K | 1110.8 | – | 17.86
313.15 K | 1107.8 | – | 15.49
318.15 K | 1104.8 | – | 13.56
323.15 K | 1101.8 | – | 11.97
328.15 K | 1098.8 | – | 10.64
332.55 K | – | 1.53909 | –
333.15 K | 1095.9 | – | 9.528
334.52 K | – | 1.5385 | –
336.48 K | – | 1.53794 | –
338.15 K | 1093 | – | 8.582
338.44 K | – | 1.53739 | –
340.41 K | – | 1.53682 | –
342.37 K | – | 1.53636 | –
343.15 K | 1090.1 | – | 7.773
348.15 K | 1087.2 | – | 7.076
353.15 K | 1084.3 | – | 6.472
358.15 K | 1081.5 | – | 5.945
363.15 K | 1078.7 | – | 5.485

Details | molar heat capacity at constant pressure [J/K/mol]
[3] | 281.45

CCn1cc[n+](C)c1.O=S(=O)([O-])C(F)(F)F [1-ethyl-3-methylimidazolium trifluoromethanesulfonate]
Details | mass density, [1] [kg/m3] | refractive index, [2] | viscosity, [1] [mPa·s]
278.15 K | 1403.3 | – | 99.83
283.15 K | 1398.9 | – | 78.93
288.15 K | 1394.5 | – | 63.51
288.37 K | – | 1.43572 | –
293.15 K | 1390.2 | – | 51.87
293.28 K | – | 1.43432 | –
298.15 K | 1385.9 | – | 42.94
298.19 K | – | 1.43296 | –
303.1 K | – | 1.43159 | –
303.15 K | 1381.6 | – | 35.98
308.01 K | – | 1.43025 | –
308.15 K | 1377.3 | – | 30.48
312.91 K | – | 1.42886 | –
313.15 K | 1373.1 | – | 26.09
318.15 K | 1368.9 | – | 22.53
323.15 K | 1364.8 | – | 19.62
328.15 K | 1360.6 | – | 17.21
333.15 K | 1356.5 | – | 15.21
338.15 K | 1352.5 | – | 13.52
343.15 K | 1348.4 | – | 12.1
348.15 K | 1344.4 | – | 10.88
353.15 K | 1340.4 | – | 9.845
358.15 K | 1336.4 | – | 8.948
363.15 K | 1332.5 | – | 8.169

Details | molar heat capacity at constant pressure [J/K/mol]
[3] | 362.8

— the NIST ThermoML archive (doi:10.1021/je200790q)
